Series [1] concerns the target T1, chymase (Rattus norvegicus, UniProt P09650).
T1 construct: Starting from 18g rat brain, approximately 10µg homogeneous chymase was obtained; from tissue; host or cells: rat forebrain (5-7 day old pups)
T1 sequence (P09650 21-260): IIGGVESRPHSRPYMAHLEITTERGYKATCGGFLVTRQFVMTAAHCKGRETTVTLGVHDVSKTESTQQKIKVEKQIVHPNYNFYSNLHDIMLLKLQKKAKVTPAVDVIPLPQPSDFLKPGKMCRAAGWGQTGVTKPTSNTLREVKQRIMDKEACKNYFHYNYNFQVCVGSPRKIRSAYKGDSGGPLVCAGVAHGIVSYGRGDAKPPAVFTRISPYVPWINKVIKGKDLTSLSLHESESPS
As to the kind of experiment: Inhibition of purified brain chymase (pNa substrate hydrolysis). Format: biochemical. The protocol: (§1) During the various protease purification steps, protease activity of all fractions was measured using chromogenic or fluorogenic peptide analogs as substrates. Other methods are available, known to those skilled in the art. One specific example of an activity measurement is described here. Protease activity assays were performed in 96 well microtiter plates, in a total volume of 0.2 mls. Substrates were prepared as 10-20X concentrated stock solutions in DMSO. Therefore, each reaction contained 5-10% DMSO. Reactions were initiated by addition of protease-containing samples to wells already containing substrates, and were maintained at 37°C. Control wells received either protease without substrate, or substrate without protease. The release of reporter moities by proteolytic cleavage was followed as a function of time by either spectrophotometry (e.g., for pNa substrates, change in absorbance with time at 405 nm) or fluorimetry (e.g., for AMC substrates, change in fluorescence with time using excitation at 390 nm and emission at 460 nm). Maximum velocity of reactions was determined while substrate hydrolysis increased linearly as a function of time.

Series [2] relates to human brain multicatalytic protease. Format: biochemical. Conditions: qualitative, no concentration stated. The protocol: as §1
Human cerebral cortex (courtesy National Neurological Research Bank, Los Angeles, CA.) was obtained at autopsy and stored at -70°C until use. All procedures were conducted at 4 °C unless noted otherwise. […] Triton X-100 was added to 0.5%, the homogenate was stirred for 1 hr., then centrifuged at 40,000 x g for 1 hr. The supernatant, containing the multicatalytic protease, was dialyzed against 20 mM Tris-HCl (pH 8.0),1% glycerol. The following day, the dialysate was loaded on a column (150 ml bed volume) of DEAE-Sepharose Fast Flow (Pharmacia, Piscataway, N.J.) equilibrated in the dialysis buffer. Unbound material was removed with ∼300 mls dialysis buffer, then bound material was eluted with a linear NaCl gradient from 0 mM to 400 mM (1.5 liters total). Fractions of 15 ml were collected and assayed for multicatalytic protease activity (see below).

Series [3] concerns chymase. In words: Purified chymase. The following applies: rat, room temperature, up to 48 hrs.
Series [4] deals with chymase. As to the kind of experiment: purified rat brain chymase. Conditions: 37°C.
Series [5] deals with chymotrypsin. In words: chymotrypsin. Conditions: 37°C.
Series [6] has as its system cathepsin G. In words: cathepsin G. The following applies: 37°C.
Series [7] can be described thus: high salt extract preparation (1 M MgCl2) of human brain samples.
Series [8] has as its system chymotrypsin. As to the kind of experiment: chymotrypsin (Fig. 6 panel B). The following applies: 37°C.
The subject of series [9] is cathepsin G. As to the kind of experiment: cathepsin G (Fig. 6 panel C). The following applies: 37°C.
Series [10] concerns multicatalytic protease. As to the kind of experiment: multicatalytic protease purified from human brain. The following applies: 37°C.
Series [11] relates to chymase. In words: human brain chymase purified from human cerebral cortex. The following applies: 37°C.
Series [12] has as its target T2, human brain chymase (Homo sapiens, UniProt P23946).
T2 sequence (P23946 22-247): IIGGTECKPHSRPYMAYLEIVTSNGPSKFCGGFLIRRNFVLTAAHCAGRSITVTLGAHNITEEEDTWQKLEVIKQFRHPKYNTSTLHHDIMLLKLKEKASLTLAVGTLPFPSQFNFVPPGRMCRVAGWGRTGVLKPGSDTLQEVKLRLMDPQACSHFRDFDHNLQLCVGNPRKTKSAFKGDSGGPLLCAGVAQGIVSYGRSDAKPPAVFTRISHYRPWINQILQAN
From the text: Samples obtained post-mortem from human cerebral cortex (courtesy of the National Neurological Research Bank) were fractionated as described above for preparation of rat brain chymase. […] Protease was further purified on a heparin-Sepharose column in a manner similar to purification of rat brain chymase. […] The enzyme bound to the column in 0.4 M NaCl and was eluted by increasing the NaCl concentration to 0.7-0.9 M.
Next, chymase was purified using a chymase inhibitor coupled to resin, lima bean trypsin inhibitor-agarose (Sigma, St. Louis, MO.). […] Chymase-containing fractions from the heparin eluate were pooled, concentrated to 10 ml, and loaded on a 1 ml bed volume of lima bean trypsin inhibitor-agarose. The column was washed with Hepes buffer containing 0.5 M NaCl (5 vol), then with water (5 vol). Chymase was eluted with 2 mM HCl, and was immediately neutralized with Tris-HCl (0.2 M final concentration, pH 8.0) containing 0.5 M NaCl.

Series [13] has as its target T1, chymase. In words: Substrate cleavage by brain chymase. Type of series: biochemical. The protocol:
as §1

The subject of series [14] is chymotrypsin. As to the kind of experiment: Substrate cleavage by chymotrypsin. Format: biochemical. The protocol: as §1
(§2) Contrary to expectation, not all chymotrypsin-like proteases were able to cleave MeOSuc-Glu-Val-Lys-Met-pNa (Figure 6; EVKM using the one letter amino acid code). […]

Series [15] has as its target T3, cathepsin G (Homo sapiens, UniProt P08311).
T3 sequence (P08311 21-255): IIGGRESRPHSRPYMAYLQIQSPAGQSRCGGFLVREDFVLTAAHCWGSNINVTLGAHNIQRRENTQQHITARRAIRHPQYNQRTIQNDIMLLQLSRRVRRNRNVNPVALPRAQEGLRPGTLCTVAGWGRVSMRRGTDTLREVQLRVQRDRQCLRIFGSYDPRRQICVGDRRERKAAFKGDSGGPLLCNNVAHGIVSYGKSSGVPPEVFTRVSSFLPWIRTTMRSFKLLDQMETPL
In words: Substrate cleavage by cathepsin G. Type of series: biochemical. The protocol:
as §1, §2

Series [16] concerns the target T4, multicatalytic protease (Homo sapiens, UniProt P28074).
T4 construct: Human cerebral cortex (courtesy National Neurological Research Bank, Los Angeles, CA.) was obtained at autopsy; from tissue; host or cells: human cerebral cortex, post mortem
In words: Substrate cleavage by multicatalytic protease. Format: biochemical. As to the method:
as §1
Human cerebral cortex (courtesy National Neurological Research Bank, Los Angeles, CA.) was obtained at autopsy and stored at -70°C until use. All procedures were conducted at 4 °C unless noted otherwise. […]

Values joined by “and” are separate entries in the source; they are usually repeats but may differ in a detail not shown here. Equal entries are not always repeated. “Also recorded” adds a separate entry of the source. Where two headings read alike, the source gives them in different places. Square brackets hold non-standard residues; d marks the D form. Peptide text beside a SMILES is read from it. * marks the point of attachment. Sta = CC(C)C[C@H](N)[C@@H](O)CC(=O)O; Isovaleryl = CC(C)CC(=O)*; MeOSuc = COC(=O)CCC(=O)*; CH2Cl = ClC*

What is called Ki is a measure of affinity in units of concentration, obtained from inhibition or displacement. In turn, `COC(=O)CCC(=O)N[C@@H](CCC(=O)O)C(=O)N[C@H](C(=O)N[C@@H](CCCCN)C(=O)N[C@@H](Cc1ccccc1)C(=O)CCl)C(C)C` (MeOSuc-EVKF-CH2Cl) registered a Ki in series [1] (Ki) of less than 20 nM.

As to `COC(=O)CCC(=O)N[C@@H](CCC(=O)O)C(=O)N[C@H](C(=O)N[C@@H](CCCCN)C(=O)N[C@H](C=O)Cc1ccccc1)C(C)C` [MeOSuc-Glu-Val-Lys-Phe-al, MeOSuc-Glu-Val-Lys-Phenylalaninal] (MeOSuc-EVKF-aldehyde), in series [1] (read-out: Ki), the Ki was < 20 nM and 15 nM.

Turning to `CC(C)C[C@H](NC(=O)[C@@H](NC(=O)N[C@@H](Cc1ccccc1)C(=O)O)[C@@H]1CCN=C(N)N1)C(=O)N[C@H](C=O)Cc1ccccc1` [chymostatin], the “inhibition of multicatalytic protease activity” value in series [2] is recorded as “inhibition”.

On to `CC(=O)N[C@@H](CC(C)C)C(=O)N[C@@H](CC(C)C)C(=O)N[C@H](C=O)CCCNC(=N)N` [leupeptin], for which the “inhibition of multicatalytic protease activity” value in series [2] was “not”.

On to `c1cnc2c(c1)ccc1cccnc12` [o-phenanthroline], for which the “inhibition of multicatalytic protease activity” value in [2] was “not”.

In the case of `CC(C)CC(=O)N[C@H](C(=O)N[C@H](C(=O)N[C@@H](CC(C)C)[C@@H](O)CC(=O)N[C@@H](C)C(=O)N[C@@H](CC(C)C)[C@@H](O)CC(=O)O)C(C)C)C(C)C` [pepstatin] (Isovaleryl-VV[Sta]A[Sta]-OH), the “inhibition of multicatalytic protease activity” value in series [2] is “not”.

`O=S(=O)(F)Cc1ccccc1` [phenylmethylsulfonylfluoride]: the “inhibition of multicatalytic protease activity” value in series [2] is listed as “not”.

In the case of “Glu-Val-Lys-Met-Asp-Ala-Glu-Phe-Arg-His-Asp-Ser-Gly-Tyr-Glu-Val-His-His-Gln”, the cleaved bond result in [3] was “Met596-Asp597, 45 minutes”.

Turning to MeOSuc-Ala-Ala-Pro-Met-pNa, the cleaved bond entry in series [4], in series [5] and in [6] was “Met-pNa” in each case.

As for MeOSuc-Ala-Ala-Pro-Phe-pNa, the cleaved bond entry in series [7] is “Phe-pNa”.

With MeOSuc-Glu-Val-Lys-Met-pNa, the cleaved bond entry in [4], in series [10] and in series [11] was “Met-pNa” in each case. Further, the not cleaved result in [8] and in [9] was “essentially without effect” throughout.

With MeOSuc-Glu-Val-Lys-Phe-pNa, in [4], the cleaved bond entry is recorded as “Phe-pNa”.

Suc-Ala-Ala-Pro-Phe-pNa: the cleaved bond entry in series [4] and in [11] was “Phe-pNa” throughout.

Consider “methoxysuccinyl-glutamyl-valyl-lysyl-methionine-p-nitroanili de [MeOSuc-Glu-Val-Lys-Met-pNa]”, for which the “substrate hydrolysis by human brain chymase” value in series [12] is on record as “hydrolyzed”. In addition, the “substrate cleavage by chymase” value in series [13] was “readily degraded”. Besides, the “substrate cleavage by chymotrypsin” value in series [14] is on record as “essentially without effect”. The “substrate cleavage by cathepsin G” value in series [15] is recorded as “essentially without effect”. For the same molecule, in series [16], the “substrate cleavage by multicatalytic protease” value was “readily degraded; also recorded: unusual ability to cleave”.

For the origin of these results see EP0732399A2 (CEPHALON, INC., priority 1990, dated 1991).
